This passage reports melting point results from US8778963B2, “Hydroxylamine and oxime substituted imidazoquinolines, imidazopyridines, and imidazonaphthyridines” (3M Innovative Properties Company, priority 2003, dated 2014).

What is called melting point is the temperature of the solid-liquid transition.

Counter-ions that a name gives are not always drawn.

In turn, `CO/N=C/CCCn1c(C)nc2c(N)nc3ccccc3c21` [Example 45, 4-(4-Amino-2-methyl-1H-imidazo[4,5-c]quinolin-1-yl)butanal O-methyloxime] had a melting point of 153 to 155 °C.

`CCCc1nc2c(N)nc3ccccc3c2n1CCCC(C)N(OC)C(=O)NC1CCCC1` (stereo not drawn) [Example 16, 1-[4-(4-Amino-2-propyl-1H-imidazo[4,5-c]quinolin-1-yl)-1-methylbutyl]-N-methoxy-3-cyclopentylurea] had a melting point of 182 to 184 °C.

For `CON(CCCCn1c(C)nc2c(N)nc3ccccc3c21)S(C)(=O)=O` [Example 47, N-[4-(4-Amino-2-methyl-1H-imidazo[4,5-c]quinolin-1-yl)butyl]-N-methoxymethanesulfonamide], the melting point lay within 201 to 203 °C.

Consider `CCCc1nc2c(N)nc3ccccc3c2n1CCCCN(O)C(=O)NC(C)C` [Example 44, N-[4-(4-Amino-2-propyl-1H-imidazo[4,5-c]quinolin-1-yl)butyl]-N-hydroxy-N′-isopropylurea], for which the melting point was in the range of 158 to 160 °C.

As to `CCc1nc2c(N)nc3ccccc3c2n1CCCNOC` [Example 51, N-[3-(4-Amino-2-ethyl-1H-imidazo[4,5-c]quinolin-1-yl)propyl]-O-methylhydroxylamine], the melting point lay in the range of 210 to 213 °C.

Molecule `CCCc1nc2c(N)nc3c(c2n1CCCCN(O)C(=O)NC(C)C)CCCC3` [Example 50, N-[4-(4-Amino-2-propyl-6,7,8,9-tetrahydro-1H-imidazo[4,5-c]quinolin-1-yl)butyl]-N-hydroxy-N′-isopropylurea] had a melting point of 178 to 180 °C.

In turn, `CCCCc1nc2c(N)nc3ccccc3c2n1CCCC(=NO)c1ccccc1` [Example 28, 4-(4-Amino-2-butyl-1H-imidazo[4,5-c]quinolin-1-yl)-1-phenylbutan-1-one oxime] displayed a melting point of 242 to 244 °C.

Consider `CCCc1nc2c(N)nc3ccccc3c2n1CCCCN(OC)C(N)=O` [Example 7, 1-[4-(4-Amino-2-propyl-1H-imidazo[4,5-c]quinolin-1-yl)butyl]-1-methoxyurea], for which the melting point lay in the range of 179 to 181 °C.

The molecule `CCCc1nc2c(N)nc(C)c(C)c2n1CCCCN(O)C(=O)Nc1ccccc1` [Example 24, 1-[4-(4-Amino-6,7-dimethyl-2-propyl-1H-imidazo[4,5-c]pyridine-1-yl)butyl]-1-hydroxy-3-phenylurea] yielded a melting point of 159 to 160.5 °C.

In the case of `CCCCc1nc2c(N)nc3cccnc3c2n1CCC/C(C)=N/OC` [Example 4, 5-(4-Amino-2-butyl-1H-imidazo[4,5-c][1,5]naphthyridin-1-yl)-pentan-2-one O-methyloxine], the melting point was in the range of 132 to 134 °C.

Turning to `CCOCc1nc2c(N)nc3ccccc3c2n1CCCC(C)=NO` [Example 34, 5-(4-Amino-2-ethoxymethyl-1H-imidazo[4,5-c]quinolin-1-yl)pentan-2-one oxime], the melting point is 220 to 223 °C.

`CCOCc1nc2c(N)nc3ccccc3c2n1CCCC(C)=NOC` (as salt: hydrochloride) [Example 35, 5-(4-Amino-2-ethoxymethyl-1H-imidazo[4,5-c]quinolin-1-yl)pentan-2-one O-methyloxime hydrochloride] came in with a melting point of 189 to 192 °C.
